One assay deals with PPC-1 cells. The experiment in a line: PPC-1 prostate cancer cell growth in vitro. Type of assay: cell-based. As to the method: (§1) Cell Lines and Culture Conditions. HL-60, DLD1, and U937 cells were obtained from ATCC (Rockville, Md.). Meth A cells were from Dr. Wolfram Samlowski (University of Utah, Salt Lake City, Utah). The PPC-1 cell line was provided by Dr. Graeme Bolger (University of Alabama, Birmingham, Ala.). For the cell growth and apoptosis experiments, cells were cultured at a density of 150,000 cells/ml in RPMI-1640 with 10% fetal bovine serum at 37° C. in a 5% CO2 humidified atmosphere. Agents were added at the indicated concentrations 24 h after culture initiation. At the indicated time intervals, cells were harvested and washed twice in phosphate buffered saline (PBS) prior to processing for analysis of growth, differentiation, and apoptosis.
(§2) Cell Growth, Differentiation and Apoptosis Assays. The number of viable cells was determined using the MTT assay according to the manufacturer's protocol (Promega, Madison, Wis.) or using a Coulter counter. […] The assay is useful in calorimetric quantitation of cell viability and proliferation. In contrast, cell differentiation was evaluated using Wright and Non-Specific Esterase (NSE) staining of cells collected on microscope slides by cytospin as previously described (Magrinat, G. et al. (1992) Blood 80: 1880-1884). […]

For the next assay, the system named is DLD-1. Kind of assay: DLD-1 solid tumor cell growth. Type of assay: cell-based. How it is done: as §1, §2
The test system of assay [1] is bacterial, viral, fungal or parasitic infection. Kind of assay: Treatment of bacterial, viral, fungal or parasitic infection in an individual. Type of assay: in vivo. Particulars: therapeutically effective amount. How it is done: An individual with a bacterial, viral, fungal or parasitic infection is administered a therapeutically effective amount of JS-K to treat such infection.

For a further assay, the system named is HL-60 cells. Kind of assay: Systemic leukemia model: NOD/SCID mice injected intravenously with HL-60 cells. Type of assay: in vivo. How it is done: A second experiment was conducted with NOD/SCID mice injected intravenously with HL-60 cells. Control mice appeared to develop systemic disease as evidenced by large abdominal lymph nodes and leukemia cell engraftment in the liver, spleen and bone marrow. Treated mice were administered 1 μmol/kg intravenous JS-K for three to four weeks beginning one day after inoculation. Control mice were treated with vehicle. A human-specific anti-CD15 antibody was utilized in flow cytometric analysis to identify the leukemic cells. […] Additionally, the number and size of enlarged abdominal lymph nodes appeared to be smaller in these animals.

The next assay relates to Meth A. The experiment in a line: Meth A solid tumor cell growth. Type of assay: cell-based. As to the method:
as §1, §2

The test system of a further assay is U937 cells. Kind of assay: U937 leukemia cell growth. Type of assay: cell-based, human. How it is done:
Cell Lines and Culture Conditions. HL-60, DLD1, and U937 cells were obtained from ATCC (Rockville, Md.). Meth A cells were from Dr. Wolfram Samlowski (University of Utah, Salt Lake City, Utah). The PPC-1 cell line was provided by Dr. Graeme Bolger (University of Alabama, Birmingham, Ala.). For the cell growth and apoptosis experiments, cells were cultured at a density of 150,000 cells/ml in RPMI-1640 with 10% fetal bovine serum at 37° C. in a 5% CO2 humidified atmosphere. Agents were added at the indicated concentrations 24 h after culture initiation. […]
as §2
The antiproliferative effects in the human AML (Acute Myeloid Leukemia) cell lines, HL-60 (myeloid leukemia) and U937 (monoblastic leukemia) cells were treated with JS-K for a period of 3 days, upon which cell growth was evaluated using a Coulter counter (CITY, STATE). […]

[2] abbreviates: 1 μmol/kg intravenous for three to four weeks, versus controls.

pIC50: −log10 of the molar value. Where two headings read alike, the source gives them in different places.

The record followed here is patent US8404665B2, “In vivo use of glutathione S-transferase activated nitric oxide donors” (University of Utah Research Foundation, priority 2002, dated 2013).

A word on the pIC50: it is −log10 of the IC50, conventionally taken in molar units. With `CCOC(=O)N1CCN(/[N+]([O-])=N/Oc2ccc([N+](=O)[O-])cc2[N+](=O)[O-])CC1` [JS-K, O^2-(2,4-dinitrophenyl) 1-[(4-ethoxycarbonyl)piperazin-1-yl]diazen-1-ium-1,2-diolate], in the assay with PPC-1 cells (1, 2, 3, 4 and 5 μM, 3 days), the cell growth inhibition result was “potent inhibitor of prostate cancer growth”. In addition, the “IC50 relative to leukemia lines” value in the assay with PPC-1 cells (PPC-1), in the assay on DLD-1 and in the assay on Meth A was “an order of magnitude greater than those for the two leukemia lines” throughout. In assay [1], the effect on infection entry is “causes elimination of such infection”. For the same compound, the “colonies from cultured bone marrow in human hematopoietic cell-selective semi-solid medium” value with HL-60 cells (1 μmol/kg intravenous) is “few if any colonies of cancerous cells”. Also, the “leukemic cell engraftment (anti-CD15 flow cytometry)” value in the assay with HL-60 cells (setting [2]) is “decreased leukemic cell engraftment in the bone marrow and liver”. For the same compound, in the assay on HL-60 cells (setting [2]), the “number and size of enlarged abdominal lymph nodes” value is reported as “smaller”. Further, the “treated mice with almost no evidence of disease” value in the assay with HL-60 cells (three to four weeks after inoculation) is recorded as “Two of the five”. Further, the pIC50 was 6.52 with U937 cells (U937 (monocytic leukemia) cells, read-out: IC50, growth) and 6.48 in the assay with U937 cells (U937, 3 days, Coulter counter, read-out: IC50, cell growth).
